Source: patent US20140135270A1, “MACROCYCLIC COMPOUNDS FOR INHIBITION OF INHIBITORS OF APOPTOSIS” (Ensemble Therapeutics Corp., priority 2012, published 2014)
Where two headings read alike, the source gives them in different places.

Key:
[1] = the molecule shown is the open-chain precursor, rcm bond, 38-membered ring, DCE, 70.0 °C
[2] = the molecule shown is the open-chain precursor; rcm bond; 37-membered ring; 2 steps

With “(S)-2-((S)-2-((2S,4S)-4-(4-((4-((S)-2-((S)-2-((2S,4S)-4-Allyl-1-((S)-2-4S)-2-((tert-butoxycarbonyl)(methyl)amino)propanamido)-3,3-dimethylbutanoyl)pyrrolidine-2-carboxamido)-3-(naphthalen-2-yl)propanamido)-3-(methylsulfonamido)-3-oxopropyl)phenoxy)methyl)-1H-1,2,3-triazol-1-yl)-1-((S)-2-((S)-2-((tert-butoxycarbonyl)(methyl)amino)propanamido)-3,3-dimethylbutanoyl)pyrrolidine-2-carboxamido)-3-(naphthalen-2-yl)propanamido)-3-(4-(allyloxy)phenyl)propanoic acid” the ring closure, yield after HPLC ([1]; Grubbs II (2 portions), 2.9 mM) was 49%.

Work on “(S)-tert-butyl 2-((S)-2-((2S,4S)-4-((5-((4-((S)-2-((S)-2-((2S,4S)-4-allyl-1-((S)-2-((S)-2-((tert-butoxycarbonyl)(methyl)amino)propanamido)-3,3-dimethylbutanoyl)pyrrolidine-2-carboxamido)-3-(naphthalen-2-yl)propanamido)-3-(cyclopropanesulfonamido)-3-oxopropyl)phenoxy)methyl)-1H-1,2,3-triazol-1-yl)-1-((S)-2-((S)-2-((tert-butoxycarbonyl)(methyl)amino)propanamido)-3,3-dimethylbutanoyl)pyrrolidine-2-carboxamido)-3-(naphthalen-2-yl)propanamido)-3-(4-(allyloxy)phenyl)propanoate” yielded a ring closure, isolated yield [2] of 2%.

Substance “(S)-tert-Butyl 2-((S)-2-((2S,4S)-4-(4-((4-((S)-2-((S)-2-((2S,4S)-4-allyl-1-((S)-2-((S)-2-((tert-butoxycarbonyl)(methyl)amino)propanamido)-3,3-dimethylbutanoyl)pyrrolidine-2-carboxamido)-3-(naphthalen-2-yl)propanamido)-3-(cyclopropanesulfonamido)-3-oxopropyl)phenoxy)methyl)-1H-1,2,3-triazol-1-yl)-1-((S)-2-((S)-2-((tert-butoxycarbonyl)(methyl)amino)propanamido)-3,3-dimethylbutanoyl)pyrrolidine-2-carboxamido)-3-(naphthalen-2-yl)propanamido)-3-(4-(allyloxy)phenyl)propanoate” has a ring closure, yield after HPLC ([1]; Hoveyda-Grubbs II (10 mol%), 3.5 mM) of 75%.

For “(S)-tert-Butyl 2-((S)-2-((2S,4S)-4-allyl-1-((S)-2-((S)-2-((tert-butoxycarbonyl)(methyl)amino)propanamido)-3,3-dimethylbutanoyl)pyrrolidine-2-carboxamido)-3-(naphthalen-2-yl)propanamido)-3-(4-((1-((3S,5S)-5-(((S)-1-(((S)-2-(4-(allyloxy)phenyl)-1-(5-oxo-4,5-dihydro-1,3,4-oxadiazol-2-yl)ethyl)amino)-3-(naphthalen-2-yl)-1-oxopropan-2-yl)carbamoyl)-1-((S)-2-((S)-2-((tert-butoxycarbonyl)(methyl)amino)propanamido)-3,3-dimethylbutanoyl)pyrrolidin-3-yl)-1H-1,2,3-triazol-4-yl)methoxy)phenyl)propanoate”, the ring closure, yield after HPLC ([1]; Hoveyda-Grubbs II (10 mol%), 5.2 mM) was 52%.
